From patent publication US11472778B2, “Hepatitis C virus NS3/4A protease inhibitors” (priority 2017, dated 2022)
Read-outs that look alike come from different tables or passages of the source.

Legend:
[1] = target: T1, GT1a D168A NS3/4A protease (UniProt P27958, D1194A, species not given); assay type: biochemical, Hepatitis C virus
T1 construct: rows headed: Ki (nM) D168A; Ki D168A; other: D168A variant
In short: (§1)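 NS3/4A protease (2 nM; wild-type GT1a or D168A) pre-incubated 1 h at room temperature with increasing inhibitor in 50 mM Tris pH 7.5, 5% glycerol, 10 mM DTT, 0.6 mM LDAO, 4% DMSO. Ki from three independent data sets per construct; ΔG=RTlnKi.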

[2] = target: GT1a D168A NS3/4A protease; assay type: biochemical, Hepatitis C virus; conditions: for Ki D168A (fold change): fold change in Ki, D168A relative to WT; for Ki (Fold change) GT1a D168A NS3/4A Protease: Table 3, Ki D168A relative to GT1a WT
In short: as §1

[3] = target: T2, wild-type GT1a NS3/4A protease (UniProt P27958); assay type: biochemical, Hepatitis C virus
T2 construct: Ki WT; other: wild-type HCV NS3/4A protease
In short: as §1

[4] = target: GT1a R155K NS3/4A protease; assay type: biochemical, Hepatitis C virus; conditions: fold change in Ki, R155K relative to WT
Method: (§2) For each assay, 2 nM of NS3/4A protease (GT1a, R155K and D168A) was pre-incubated at room temperature for 1 h with increasing concentration of inhibitors in assay buffer (50 mM Tris, 5% glycerol, 10 mM DTT, 0.6 mM LDAO, and 4% dimethyl sulfoxide, pH 7.5). Inhibition assays were performed in non-binding surface 96-well black half-area plates (Corning) in a reaction volume of 60 μL. […] Three independent data sets were collected for each inhibitor with each protease construct. […] Gibbs free energy of binding was calculated using the following equation: ΔG=RTlnKi

[5] = target: GT1a R155K NS3/4A protease (UniProt P27958, R1181K, species not given); assay type: biochemical, Hepatitis C virus
Method: as §2

[6] = tested on: HCV replicon R155K variant in Huh7 cells; assay: microbe, parasite or virus in culture; assay type: cell-based, Hepatitis C virus; conditions: for EC50: Hepatitis C virus; for Replicon EC50 (Fold change) R155K: Table 4, relative to WT replicon
In short: (§3)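 Huh7, electroporated w/ Con1 (gt1b) luc replicon RNA carrying H77 (gt1a) NS3; mutants by site-directed mutagenesis. Increasing PI concentrations; luciferase (RLU) read 96 h post-electroporation.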

[7] = tested on: HCV replicon D168A variant in Huh7 cells; assay: microbe, parasite or virus in culture; assay type: cell-based, Hepatitis C virus; conditions: for EC50: Hepatitis C virus; for Replicon EC50 (Fold change) D168A: Table 4, relative to WT replicon
In short: as §3

[8] = tested on: HCV replicon A156T variant in Huh7 cells; assay: microbe, parasite or virus in culture; assay type: cell-based, Hepatitis C virus; conditions: for EC50: Hepatitis C virus; for Replicon EC50 (Fold change) A156T: Table 4, relative to WT replicon
In short: as §3

GT3a NS3/4A protease = target: T3, GT3a NS3/4A protease (Hepatitis C virus genotype 3a, UniProt Q81495); assay: biochemical; conditions: for Ki (Fold change) GT3a NS3/4A Protease: Table 3, Ki GT3a relative to GT1a WT
T3 construct: drug-resistant variant D168A, and GT3a NS3/4A protease; made in house; host or cells: Escherichia coli BL21(DE3)
Method: For each assay, 2 nM of NS3/4A protease (GT1, D168A and GT3) was pre-incubated at room temperature for 1 h with increasing concentration of inhibitors in assay buffer [50 mM Tris, 5% glycerol, 10 mM DTT, 0.6 mM LDAO, and 4% dimethyl sulfoxide]. Inhibition assays were performed in nonbinding surface 96-well black half-area plates (Corning) in a reaction volume of 60 μt. […] Three independent data sets were collected for each inhibitor with each protease construct.

[9] = target: T4, wild-type GT1a NS3/4A protease (UniProt P27958, C1185S, species not given); assay type: biochemical, Hepatitis C virus; conditions: read-out: Ki (nM) GT1a WT NS3/4A Protease
T4 construct: Ki (nM) GT1a WT NS3/4A Protease
In short: as §1

[10] = target: T5, GT1a D168A NS3/4A protease (UniProt P27958, C1185S/D1194A, species not given); assay type: biochemical, Hepatitis C virus; conditions: read-out: Ki (nM) GT1a D168A NS3/4A Protease
T5 construct: Ki (nM) GT1a D168A NS3/4A Protease
In short: as §1

[11] = tested on: wild-type HCV replicon in Huh7 cells; assay: Cell-based drug susceptibility (replicon) assay, wild-type; conditions: Hepatitis C virus, read-out: Replicon EC50 (nM) WT
In short: as §3

[12] = tested on: HCV replicon D168V variant in Huh7 cells; assay: microbe, parasite or virus in culture; assay type: cell-based, Hepatitis C virus; conditions: for EC50: Hepatitis C virus; for Replicon EC50 (Fold change) D168V: Table 4, relative to WT replicon
In short: as §3

[13] = read-out: Ki (nM) D168A, Table 8, linear inhibitors
[14] = read-out: Ki D168A, D168A variant
[15] = read-out: Ki (nM) WT, Table 8, linear inhibitors
[16] = read-out: Ki WT, wild-type HCV NS3/4A protease
[17] = read-out: Ki (nM) R155K, Table 8, linear inhibitors
[18] = read-out: Ki R155K, R155K variant
[19] = Huh-7, 96 h, read-out: Replicon EC50 (nM) R155K, Table 2, Huh7 cells, luciferase 96 h
[20] = Huh-7, read-out: Replicon EC50 (nM) R155K, Table 4
[21] = Huh-7, 96 h, read-out: Replicon EC50 (nM) D168A, Table 2, Huh7 cells, luciferase 96 h
[22] = Huh-7, read-out: Replicon EC50 (nM) D168A, Table 4
[23] = Huh-7, 96 h, read-out: Replicon EC50 (nM) A156T, Table 2, Huh7 cells, luciferase 96 h
[24] = Huh-7, read-out: Replicon EC50 (nM) A156T, Table 4
[25] = Huh-7, 96 h, Table 2, Huh7 cells, luciferase 96 h
[26] = Huh-7, 96 h, read-out: Replicon EC50 (nM) D168V, Table 2, Huh7 cells, luciferase 96 h
[27] = Huh-7, read-out: Replicon EC50 (nM) D168V, Table 4

T3 sequence (Q81495 1033-1214): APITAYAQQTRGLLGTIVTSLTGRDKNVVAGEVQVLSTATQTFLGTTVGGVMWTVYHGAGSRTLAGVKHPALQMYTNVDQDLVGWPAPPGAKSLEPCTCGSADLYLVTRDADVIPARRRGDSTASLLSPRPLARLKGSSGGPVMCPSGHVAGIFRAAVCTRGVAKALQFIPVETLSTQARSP

## C=C[C@@H]1C[C@]1(NC(=O)[C@@H]1C[C@@H](Oc2nc3cc(OC)ccc3nc2C(C)C)CN1C(=O)[C@@H](NC(=O)OC(C)(C)C)C(C)(C)C)C(=O)NS(=O)(=O)C1CC1 [Compound 9c, tert-Butyl ((S)-1-((2S,4R)-2-(((1R,2S)-1-((cyclopropylsulfonyl)carbamoyl)-2-vinylcyclopropyl)carbamoyl)-4-((3-isopropyl-7-methoxyquinoxalin-2-yl)oxy)pyrrolidin-1-yl)-3,3-dimethyl-1-oxobutan-2-yl)carbamate]
[1]; [13]
  Ki: 1090 ± 137 nM
[1]; [14]
  Ki: 1090 ± 137 nM
[2]
  Ki D168A (fold change): 34
[3]; [15]
  Ki: 32 ± 5.1 nM
[3]; [16]
  Ki: 32 ± 5.1 nM
[4]
  Ki R155K (fold change): 1.5
[5]; [17]
  Ki: 49 ± 11 nM
[5]; [18]
  Ki: 49 ± 11 nM

## C=C[C@@H]1C[C@]1(NC(=O)[C@@H]1C[C@@H](Oc2nc3cc(OC)ccc3nc2C(F)(F)F)CN1C(=O)[C@@H](NC(=O)OC(C)(C)C)C(C)(C)C)C(=O)NS(=O)(=O)C1(C)CC1 [Compound 10e, tert-Butyl ((S)-1-((2S,4R)-4-((7-methoxy-3-(trifluoromethyl)quinoxalin-2-yl)oxy)-2-(((1R,2S)-1-(((1-methylcyclopropyl)sulfonyl)carbamoyl)-2-vinylcyclopropyl)carbamoyl)pyrrolidin-1-yl)-3,3-dimethyl-1-oxobutan-2-yl)carbamate]
[1]; [13]
  Ki: 513 ± 50 nM
[1]; [14]
  Ki: 513 ± 50 nM
[2]
  Ki D168A (fold change): 11
[3]; [15]
  Ki: 46 ± 9.6 nM
[3]; [16]
  Ki: 46 ± 9.6 nM
[4]
  Ki R155K (fold change): 0.3
[5]; [17]
  Ki: 12 ± 1.7 nM
[5]; [18]
  Ki: 12 ± 1.7 nM

## C=C[C@@H]1C[C@]1(NC(=O)[C@@H]1C[C@@H](Oc2nc3cc(OC)ccc3nc2CC)CN1C(=O)[C@@H](NC(=O)OC(C)(C)C)C(C)(C)C)C(=O)NS(=O)(=O)C1(C)CC1 [Compound 10a, tert-Butyl ((S)-1-((2S,4R)-4-((3-ethyl-7-methoxyquinoxalin-2-yl)oxy)-2-(((1R,2S)-1-(((1-methylcyclopropyl)sulfonyl)carbamoyl)-2-vinylcyclopropyl)carbamoyl)pyrrolidin-1-yl)-3,3-dimethyl-1-oxobutan-2-yl)carbamate]
[1]; [13]
  Ki: 385 ± 31 nM
[1]; [14]
  Ki: 385 ± 31 nM
[2]
  Ki D168A (fold change): 24
[3]; [15]
  Ki: 16 ± 1.3 nM
[3]; [16]
  Ki: 16 ± 1.3 nM
[4]
  Ki R155K (fold change): 0.9
[5]; [17]
  Ki: 14 ± 1.1 nM
[5]; [18]
  Ki: 14 ± 1.1 nM

## C=C[C@@H]1C[C@]1(NC(=O)[C@@H]1C[C@@H](Oc2nc3cc(OC)ccc3nc2CC)CN1C(=O)[C@@H](NC(=O)OC1CCCC1)C(C)(C)C)C(=O)NS(=O)(=O)C1CC1 [Compound 11a, Cyclopentyl ((S)-1-((2S,4R)-2-(((1R,2S)-1-((cyclopropylsulfonyl)carbamoyl)-2-vinylcyclopropyl)carbamoyl)-4-((3-ethyl-7-methoxyquinoxalin-2-yl)oxy)pyrrolidin-1-yl)-3,3-dimethyl-1-oxobutan-2-yl)carbamate]
[1]; [13]
  Ki: 350 ± 30 nM
[1]; [14]
  Ki: 350 ± 30 nM
[2]
  Ki D168A (fold change): 36
[3]; [15]
  Ki: 9.8 ± 2 nM
[3]; [16]
  Ki: 9.8 ± 2 nM
[4]
  Ki R155K (fold change): 1.5
[5]; [17]
  Ki: 15 ± 2.2 nM
[5]; [18]
  Ki: 15 ± 2.2 nM

## C=C[C@@H]1C[C@]1(NC(=O)[C@@H]1C[C@@H](Oc2nc3cc(OC)ccc3nc2C)CN1C(=O)[C@@H](NC(=O)OC(C)(C)C)C(C)(C)C)C(=O)NS(=O)(=O)C1CC1 [Compound 9b, tert-Butyl ((S)-1-((2S,4R)-2-(((1R,2S)-1-((cyclopropylsulfonyl)carbamoyl)-2-vinylcyclopropyl)carbamoyl)-4-((7-methoxy-3-methylquinoxalin-2-yl)oxy)pyrrolidin-1-yl)-3,3-dimethyl-1-oxobutan-2-yl)carbamate]
[1]; [13]
  Ki: 290 ± 24 nM
[1]; [14]
  Ki: 290 ± 24 nM
[2]
  Ki D168A (fold change): 16
[3]; [15]
  Ki: 18 ± 1.6 nM
[3]; [16]
  Ki: 18 ± 1.6 nM
[4]
  Ki R155K (fold change): 0.5
[5]; [17]
  Ki: 8.5 ± 2.1 nM
[5]; [18]
  Ki: 8.5 ± 2.1 nM

## COc1ccc2nc(C(F)(F)F)c(O[C@@H]3C[C@H]4C(=O)N[C@]5(C(=O)NS(=O)(=O)C6CC6)C[C@H]5/C=C\CCCCC[C@H](NC(=O)OC5CCCC5)C(=O)N4C3)nc2c1 [Compound 22d, Cyclopentyl ((2R,6S,13aS,14aR,16aS,Z)-14a-((cyclopropylsulfonyl)carbamoyl)-2-((7-methoxy-3-(trifluoromethyl)quinoxalin-2-yl)oxy)-5,16-dioxo-1,2,3,5,6,7,8,9,10,11,13a,14,14a,15,16,16a-hexadecahydrocyclopropa[e]pyrrolo[1,2-a][1,4]diazacyclopentadecin-6-yl)carbamate]
[6]; [19]
  EC50: 7.97 nM
[6]; [20]
  EC50: 7.97 nM
[6]
  Replicon EC50 (Fold change) R155K: (2) fold
[7]; [21]
  EC50: 15.1 nM
[7]; [22]
  EC50: 15.1 nM
[7]
  Replicon EC50 (Fold change) D168A: (3) fold
[8]; [23]
  EC50: 117 nM
[8]; [24]
  EC50: 117 nM
[8]
  Replicon EC50 (Fold change) A156T: (24) fold
GT3a NS3/4A protease
  Ki: 757 nM
  Ki (Fold change) GT3a NS3/4A Protease: (100) fold
[2]
  Ki (Fold change) GT1a D168A NS3/4A Protease: (15) fold
[9]; Table 1
  Ki: 7.55 nM
[9]; Table 3
  Ki: 7.55 nM
[10]; Table 1
  Ki: 115 nM
[10]; Table 3
  Ki: 115 ± 12 nM
[11]; [25]
  EC50: 4.86 nM
[11]; Huh-7, Table 4
  EC50: 4.86 nM
[12]; [26]
  EC50: 24 nM
[12]; [27]
  EC50: 24 nM
[12]
  Replicon EC50 (Fold change) D168V: (5) fold

## COc1ccc2nc(Cl)c(O[C@@H]3C[C@H]4C(=O)N[C@]5(C(=O)NS(=O)(=O)C6(C)CC6)C[C@H]5/C=C\CCCCC[C@H](NC(=O)OC5CCCC5)C(=O)N4C3)nc2c1 [Compound 23c, Cyclopentyl ((2R,6S,13aS,14aR,16aS,Z)-2-((3-chloro-7-methoxyquinoxalin-2-yl)oxy)-14a-(((1-methylcyclopropyl)sulfonyl)carbamoyl)-5,16-dioxo-1,2,3,5,6,7,8,9,10,11,13a,14,14a,15,16,16a-hexadecahydrocyclopropa[e]pyrrolo[1,2-a][1,4]diazacyclopentadecin-6-yl)carbamate]
[6]; [19]
  EC50: 0.56 nM
[6]; [20]
  EC50: 0.56 nM
[6]
  Replicon EC50 (Fold change) R155K: (4) fold
[7]; [21]
  EC50: 0.97 nM
[7]; [22]
  EC50: 0.97 nM
[7]
  Replicon EC50 (Fold change) D168A: (6) fold
[8]; [23]
  EC50: 4.32 nM
[8]; [24]
  EC50: 4.32 nM
[8]
  Replicon EC50 (Fold change) A156T: (29) fold
GT3a NS3/4A protease
  Ki: 61 nM
  Ki (Fold change) GT3a NS3/4A Protease: (139) fold
[2]
  Ki (Fold change) GT1a D168A NS3/4A Protease: (58) fold
[9]; Table 1
  Ki: 0.44 nM
[9]; Table 3
  Ki: 0.44 nM
[10]; Table 1
  Ki: 25.7 nM
[10]; Table 3
  Ki: 25.7 ± 1.8 nM
[11]; [25]
  EC50: 0.15 nM
[11]; Huh-7, Table 4
  EC50: 0.15 nM
[12]; [26]
  EC50: 1.09 nM
[12]; [27]
  EC50: 1.09 nM
[12]
  Replicon EC50 (Fold change) D168V: (7) fold
